Blank lines part the entries; values can stand above or below the compound they belong to.
Legend:
[1] = Vapour pressure osmometry (dissociation in water); format: physicochemical; conditions: arbitrary scale
From the text: A vapour pressure osmometer was used to investigate the dissociation of the di-sodium alpha tocopheryl phosphate N-lauryl imino dipropionate complex by comparing the lowering of the equilibrium temperature to give an identical partial pressure of water vapour around a drop of pure water versus various solutions as an indication of the relative moles of solute.
N-lauryl imino dipropionate alone gives three ions and at 0.05M the effect was 38 units. If the complex was readily dissociated, then the additional tocopheryl phosphate would be expected to increase the effect in the ratio 3:5 by the addition of the charged amino group as a cation and tocopheryl hydrogen phosphate anion.

Human cadaver skin = test: In vitro human skin penetration study; format: in vitro ADME; conditions: analyte tocopheryl acetate
Method: DSS was similar in TP and […] content, however, unlike TPC, DSS existed as the mixed sodium salts. A slurry of 6.25 w/w % of 80% DSS in 93.75 w/w % of the 95/5-water/ethanol mixture iwa prepared. Tocopheryl acetate was obtained from Roche/BASF. 5.0 w/w % of TA was dispersed in 95.0 w/w % of 95/5 water/ethanol mixture. The test formulations were evaluated in in vitro human skin penetration studies. […] The tests were conducted by […] International (San Diego, Calif.). Human cadaver skin was obtained and prepared. […] Receptor solutions were collected over 48 hours at pre-selected time intervals. After 48 hours the skin surface was washed with isopropyl alcohol, and the skin was collected and split into epidermis and dermis. The skin sections were extracted with isopropyl alcohol.

SMILES: [Cl-].[Na+] [sodium chloride]
Osmometer effect ([1]; 0.1M in water): 29 unit

Osmometer effect ([1]; 0.05M in water): 38 units
SMILES: CCCCCCCCCCCCN(CCC(=O)O)CCC(=O)O [N-lauryl imino dipropionate]

Dermis/Epidermis Ratio, Tocopheryl Acetate (Human cadaver skin; 48 hours): 0.20
Percent distribution recovered: Tocopheryl Acetate, Dermis (Human cadaver skin; dermis after 48 hours, 5 μL/cm^2 topical dose): 1.39 wt/wt %
Percent distribution recovered: Tocopheryl Acetate, Epidermis (Human cadaver skin; epidermis after 48 hours, 5 μL/cm^2 topical dose): 7.13 wt/wt %
Percent distribution recovered: Tocopheryl Acetate, Surface Wash (Human cadaver skin; surface wash after 48 hours, 5 μL/cm^2 topical dose): 91.48 wt/wt %
SMILES: CC(=O)Oc1c(C)c(C)c2c(c1C)CCC(C)(CCC[C@H](C)CCC[C@H](C)CCCC(C)C)O2 (stereo partly drawn) [TA, Tocopheryl acetate]
